# Laboratory results as given in ChEMBL document CHEMBL1138397, “New C25 carbamate rifamycin derivatives are resistant to inactivation by ADP-ribosyl transferases” (2007).
# How the values were obtained:
# [1] = test system: Mycolicibacterium smegmatis; test: Ratio of MIC for Arr-1 positive Mycobacterium smegmatis DSM 43756 to MIC for Arr-1 negative Mycobacterium smegmatis DSM 43756Kml; format: functional
# [2] = test system: Escherichia coli; test: Antimicrobial activity against Arr-2 positive Escherichia coli DH5-alpha bearing pCTF104; format: functional; details: DH5alpha
# [3] = test system: Escherichia coli; test: Ratio of MIC for Arr-2 positive Escherichia coli DH5-alpha bearing pCTF104 to MIC for Arr-2 negative Escherichia coli DH5-alpha bearing pCTF104P; format: functional, DH5alpha
# [4] = test system: Escherichia coli; test: Antimicrobial activity against Arr-2 negative Escherichia coli CGSC 5163 lpxC101 mutant bearing pCTV104P; format: functional
# [5] = test system: Staphylococcus aureus; test: Antimicrobial activity against rifampin-sensitive Staphylococcus aureus ATCC 29213; format: functional
# [6] = test system: Mycolicibacterium smegmatis; test: Antimicrobial activity against Arr-1 positive Mycobacterium smegmatis DSM 43756; format: functional
# [7] = test system: Staphylococcus aureus; test: Antimicrobial activity against rifampin-resistant Staphylococcus aureus ATCC 29213 rpoB (His481Tyr) mutant; format: functional
# [8] = test system: Escherichia coli; test: Ratio of MIC for Arr-2 positive Escherichia coli CGSC 5163 lpxC101 mutant bearing pCTV104 to MIC for Arr-2 negative Escherichia coli CGSC 5163 lpxC101 mutant bearing pCTV104P; format: functional
# [9] = test system: Mycolicibacterium smegmatis; test: Antimicrobial activity against Arr-1 negative Mycobacterium smegmatis DSM 43756Kml; format: functional
# [10] = test system: Escherichia coli; test: Antimicrobial activity against Arr-2 positive Escherichia coli CGSC 5163 lpxC101 mutant bearing pCTV104; format: functional
# [11] = test system: Escherichia coli; test: Antimicrobial activity against Arr-2 negative Escherichia coli DH5alpha bearing pCTF104P; format: functional
SMILES,Ratio [1],MIC [2] [µg/mL],Ratio [3],MIC [4] [µg/mL],MIC [5] [µg/mL],MIC [6] [µg/mL],MIC [7] [µg/mL],Ratio [8],MIC [9] [µg/mL],MIC [10] [µg/mL],MIC [11] [µg/mL]
CO[C@H]1/C=C/O[C@@]2(C)Oc3c(C)c(O)c4c(c3C2=O)C(=O)C(N2CCOCC2)=C(NC(=O)/C(C)=C\C=C\[C@H](C)[C@H](O)[C@@H](C)[C@@H](O)[C@@H](C)[C@H](OC(=O)N2CCC(NCc3ccccc3)CC2)[C@@H]1C)C4=O,1,16,2,0.24,0.03,0.12,> 63,1,0.12,0.24,8
CO[C@H]1/C=C/O[C@@]2(C)Oc3c(C)c(O)c4c(c3C2=O)C(=O)C(N2CCOCC2)=C(NC(=O)/C(C)=C\C=C\[C@H](C)[C@H](O)[C@@H](C)[C@@H](O)[C@@H](C)[C@H](OC(=O)NCc2ccc(N(C)C)cc2)[C@@H]1C)C4=O,1,> 250,>4,1,0.06,0.06,> 63,16,0.06,16,63
CNC(=O)O[C@H]1[C@H](C)[C@H](O)[C@H](C)[C@@H](O)[C@@H](C)/C=C/C=C(/C)C(=O)NC2=C(N3CCOCC3)C(=O)c3c(c(O)c(C)c4c3C(=O)[C@@](C)(O/C=C/[C@H](OC)[C@H]1C)O4)C2=O,8,> 250,>32,0.5,0.004,4,4,32,0.5,16,8
CO[C@H]1/C=C/O[C@@]2(C)Oc3c(C)c(O)c4c(c3C2=O)C(=O)C(N2CCOCC2)=C(NC(=O)/C(C)=C\C=C\[C@H](C)[C@H](O)[C@@H](C)[C@@H](O)[C@@H](C)[C@H](OC(=O)NCc2ccc(C(F)(F)F)cc2)[C@@H]1C)C4=O,>4,> 250,–,0.5,0.03,0.12,–,2,≤ 0.03,1,> 250
CO[C@H]1/C=C/O[C@@]2(C)Oc3c(C)c(O)c4c(c3C2=O)C(=O)C(N2CCOCC2)=C(NC(=O)/C(C)=C\C=C\[C@H](C)[C@H](O)[C@@H](C)[C@@H](O)[C@@H](C)[C@H](OC(=O)NCc2cc(-c3ccccn3)no2)[C@@H]1C)C4=O,1,4,1,2,0.008,0.5,> 63,–,0.5,2,4
C=CCNC(=O)O[C@H]1[C@H](C)[C@H](O)[C@H](C)[C@@H](O)[C@@H](C)/C=C/C=C(/C)C(=O)NC2=C(N3CCOCC3)C(=O)c3c(c(O)c(C)c4c3C(=O)[C@@](C)(O/C=C/[C@H](OC)[C@H]1C)O4)C2=O,>32,> 250,>32,0.24,0.004,2,–,16,0.06,4,8
CO[C@H]1/C=C/O[C@@]2(C)Oc3c(C)c(O)c4c(c3C2=O)C(=O)C(N2CCOCC2)=C(NC(=O)/C(C)=C\C=C\[C@H](C)[C@H](O)[C@@H](C)[C@@H](O)[C@@H](C)[C@H](OC(=O)NCCO)[C@@H]1C)C4=O,4,> 250,>32,0.5,0.016,8,16,16,2,8,8
CO[C@H]1/C=C/O[C@@]2(C)Oc3c(C)c(O)c4c(O)c(c(/C=N/N5CCN(C)CC5)c(O)c4c3C2=O)NC(=O)/C(C)=C\C=C\[C@H](C)[C@H](O)[C@@H](C)[C@@H](O)[C@@H](C)[C@H](OC(C)=O)[C@@H]1C [RIFAMPIN],64,> 250,>32,0.24,0.008,32,> 63,32,0.5,8,8
CO[C@H]1/C=C/O[C@@]2(C)Oc3c(C)c(O)c4c(c3C2=O)C(=O)C(N2CCOCC2)=C(NC(=O)/C(C)=C\C=C\[C@H](C)[C@H](O)[C@@H](C)[C@@H](O)[C@@H](C)[C@H](OC(=O)N2CCOCC2)[C@@H]1C)C4=O,2,63,2,1,0.03,2,–,1,1,1,31
COc1ccc(CNC(=O)O[C@H]2[C@H](C)[C@H](O)[C@H](C)[C@@H](O)[C@@H](C)/C=C/C=C(/C)C(=O)NC3=C(N4CCOCC4)C(=O)c4c(c(O)c(C)c5c4C(=O)[C@@](C)(O/C=C/[C@H](OC)[C@H]2C)O5)C3=O)cc1,2,> 250,>16,0.5,0.016,0.06,4,1,0.03,0.5,16
CO[C@H]1/C=C/O[C@@]2(C)Oc3c(C)c(O)c4c(c3C2=O)C(=O)C(N2CCOCC2)=C(NC(=O)/C(C)=C\C=C\[C@H](C)[C@H](O)[C@@H](C)[C@@H](O)[C@@H](C)[C@H](OC(=O)NCCN(C)C)[C@@H]1C)C4=O,4,8,2,0.24,0.006,0.5,> 63,1,0.12,0.24,4
CO[C@H]1/C=C/O[C@@]2(C)Oc3c(C)c(O)c4c(c3C2=O)C(=O)C(N2CCOCC2)=C(NC(=O)/C(C)=C\C=C\[C@H](C)[C@H](O)[C@@H](C)[C@@H](O)[C@@H](C)[C@H](OC(=O)NCc2cccc(Cl)c2)[C@@H]1C)C4=O,>4,> 250,–,0.24,0.008,0.12,> 63,2,≤ 0.03,0.5,> 250
COc1ccccc1-c1cc(CNC(=O)O[C@H]2[C@H](C)[C@H](O)[C@H](C)[C@@H](O)[C@@H](C)/C=C/C=C(/C)C(=O)NC3=C(N4CCOCC4)C(=O)c4c(c(O)c(C)c5c4C(=O)[C@@](C)(O/C=C/[C@H](OC)[C@H]2C)O5)C3=O)on1,1,> 250,–,1,0.06,0.12,–,2,0.12,2,> 250
